Measurements reported in patent publication US20060004019A1, “Steroid sparing agents and methods of using same” (priority 2004, published 2006).

Tests used:
[1] = test system: Lewis X Brown Norway F1 hearts transplanted to Lewis recipients; experiment: Rat cardiac allograft model, Allograft Study 1 (summary across three studies); assay type: in vivo; conditions: vehicle day +9
From the text: Allograft rejection is defined as the expression of an immune reaction of the recipient, against foreign antigens of the transplanted tissue. This reaction is mediated by T lymphocytes. Cell adhesion events are of critical importance in the T-cell recognition of alloantigens, the trafficking of recipient immune and inflammatory cells into the graft, and the execution of cell-mediated effector functions. […] This beneficial therapeutic effect correlates with decreased infiltration by α4β1 positive cells, deposition of CS1-FN, and endothelial staining for VCAM-1, as determined by immunohistology/RNAse protection assay.
To further evaluate the therapeutic potential of α4β1 targeted therapy in transplantation rejection, three studies were conducted in a well-defined rat cardiac transplant model. The following report summarizes the data across all three studies.

[2] = test system: rat cardiac allografts; experiment: Rat cardiac allograft study, Allograft Study 2 (Table 20); conditions: for number of surviving grafts within each group: s.c., GG5/3 3 mg/kg, compounds 30 mg/kg;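 on all read-outs here: lewis x Brown Norway F1 hearts grafted abdominally into male Lewis rats, palpated daily, rejection meaning complete loss of heartbeat, day 0 being surgery day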
Method: Hearts from Lewis X Brown Norway F1 hybrids were transplanted to the abdominal great vessels of Lewis recipients using standard microvascular techniques. Both rat strains were male inbred rats, weighing 200-300 g. Food and water was available at all times except during surgical and dosing procedures. The day of transplantation was noted as day 0. […] Allograft survival in the rats was evaluated by daily palpation of the transplanted heart through the recipient's flank. Rejection was taken as the day of complete cessation of the graft's heart beat. Upon determination of rejection, the abdomen of the recipient was incised and retracted to confirm cessation of the heart beat in the transplanted heart. If cessation of the heart beat was not confirmed the abdomen was surgically closed, and the grafted heart was evaluated daily.
Cardiac allografts were established. Dosing of compounds began on day 0, prior to transplantation and continued through day +10. […] The vehicle control, 10% ethanol/corn oil, was administered s.c., every 12 hours, day 0 through day +10. The antibody, GG5/3 in 0.9% saline, was administered at 3 mg/kg, s.c., on day 0, +3, +7 and +10. All GG5/3 animals received twice daily s.c. injections of 0.9% saline, every 12 hours, throughout day 0 through day +10. The vehicle control, 0.9% saline, was administered daily, s.c., day 0 through day +10. All dosing solutions were formulated daily at a constant dose volume of 5 ml/kg. The site of injection was rotated at each injection through four possible sites: right and left fore flank, right and left rear flank. A total of 28 allografts, amongst 5 groups, were evaluated in the study. Group 1, consisted of 6 animals treated with the monoclonal antibody, GG5/3. […] Allograft survival was evaluated by daily palpation of the transplanted heart through the recipient's flank. Rejection was taken as the day of complete cessation of graft's heart beat. Upon determination of rejection, the abdomen of the recipient was incised to confirm cessation of the heart beat in the transplanted heart. If cessation of the graft's heart beat was not confirmed the abdomen was surgically closed, and the graft was evaluated daily.

[3] = test system: rat cardiac allografts; experiment: Rat cardiac allograft study, Allograft Study 4 (Table 22);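 further: heterotopic abdominal heart transplants from Lewis × Brown Norway F1 donors into male Lewis rats, graft beating checked daily by flank palpation, rejection defined as complete stop of heartbeat, transplant day 0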; conditions: 30 mg/kg s.c. every 12 h, day -2 to +10
Method: Hearts from Lewis X Brown Norway F1 hybrids were transplanted to the abdominal great vessels of Lewis recipients using standard microvascular techniques. Both rat strains were male inbred rats, weighing 200-300 g. Food and water was available at all times except during surgical and dosing procedures. The day of transplantation was noted as day 0. Twelve hours following the last dose approximately 1 ml of blood was collected into lithium/heparin anti-coagulant tubes. If any graft was rejected prior to the last day of dosing, blood samples were taken 12 hours after dosing on the day that graft rejection was noted. All blood samples were centrifuged at 3000 rpm for 10 minutes and the plasma was harvested, frozen on dry ice and stored frozen at −20 C prior to analysis. Allograft survival in the rats was evaluated by daily palpation of the transplanted heart through the recipient's flank. Rejection was taken as the day of complete cessation of the graft's heart beat. Upon determination of rejection, the abdomen of the recipient was incised and retracted to confirm cessation of the heart beat in the transplanted heart. If cessation of the heart beat was not confirmed the abdomen was surgically closed, and the grafted heart was evaluated daily.
Cardiac allografts were established. Dosing of compounds began on day −2, 2 days prior to transplantation and continued through day +10. […] The vehicle control, 0.9% saline, pH adjusted to a value of 5, to match the dosing solution containing the N-[N-(3-pyridinesulfonyl)-L-3,3-dimethyl-4-thiaprolyl]-0-[1-methylpiperazin-4-ylcarbonyl]-L-tyrosine isopropyl ester, was administered via the same route, i.e. every 12 hours, day −2 through day +10. The antibody, GG5/3 in 0.9% saline, was administered at 3 mg/kg, s.c., on day 0, +3, +7 and +10. All GG5/3 animals received twice daily s.c. injections of 0.9% saline, every 12 hours, from day −2 through day +10. The vehicle control, 0.9% saline, was administered daily, s.c., day 0 through day +10. All dosing solutions were formulated daily at a constant dose volume of 5 ml/kg. The site of injection was rotated at each injection through four possible sites: right and left fore flank, right and left rear flank. A total of 21 allografts, amongst 5 groups, were evaluated in the study. […] Two animals within the 0.9% saline group received saline adjusted to a pH a value of 5. (The pH value of the N-[N-(3-pyridinesulfonyl)-L-3,3-dimethyl-4-thiaprolyl]-0-[1-methylpiperazin-4-ylcarbonyl]-L-tyrosine isopropyl ester dosing solution.) The remaining two animals received saline of pH 7. Group 2 consisted of 6 animals treated with the monoclonal antibody, GG5/3. […] Twelve hours following the last dose approximately 1 ml of blood was collected into lithium/heparin anti-coagulant tubes. If any graft was rejected prior to the last day of dosing, blood samples were taken 12 hours after dosing on the day that graft rejection was noted. All samples were centrifuged at 3000 rpm for 10 minutes and the plasma was harvested, frozen on dry ice and stored frozen at −20 C prior to dispatch for analysis. Allograft survival in the rats was evaluated by daily palpation of the transplanted heart through the recipient's flank. Rejection was taken as the day of complete cessation of graft's heart beat. Upon determination of rejection, the abdomen of the recipient was incised to confirm cessation of the heart beat in the transplanted heart. If cessation of the heart beat was not confirmed the abdomen was surgically closed, and the graft was evaluated daily.

[4] = test system: rat cardiac allografts; experiment: Rat cardiac allograft study, Allograft Study 3 (Table 21); assay type: in vivo; conditions: for number of surviving grafts within each group / percent of surviving grafts within a group: s.c., GG5/3 3 mg/kg, compound 30 mg/kg
Method: Cardiac allografts were established. […] A total of 20 allografts, amongst 4 groups, were evaluated in the study.

SMILES: Cc1ccc(S(=O)(=O)N2CCC[C@H]2C(=O)N[C@@H](Cc2ccc(OC(=O)N3CCN(CCO)CC3)cc2)C(=O)OC(C)(C)C)cc1
- melting point: 158 to 160 °C

SMILES: CC(C)OC(=O)[C@H](Cc1ccc(OC(=O)N(C)C)cc1)NC(=O)[C@H]1N(S(=O)(=O)c2cnn(C)c2)CSC1(C)C
- absolute cardiac allograft survival (last day of graft survival) [1]: 37 day
- number of surviving grafts within each group ([2]; Day 0): 6
- number of surviving grafts within each group ([2]; Day 1): 6
- number of surviving grafts within each group ([2]; Day 2): 6
- number of surviving grafts within each group ([2]; Day 3): 6
- number of surviving grafts within each group ([2]; Day 4): 6
- number of surviving grafts within each group ([2]; Day 5): 6
- number of surviving grafts within each group ([2]; Day 6): 6
- number of surviving grafts within each group ([2]; Day 7): 6
- number of surviving grafts within each group ([2]; Day 8): 6
- number of surviving grafts within each group ([2]; Day 9): 6
- number of surviving grafts within each group ([2]; Day 10): 5
- number of surviving grafts within each group ([2]; Day 11): 3
- number of surviving grafts within each group ([2]; Day 12): 3
- number of surviving grafts within each group ([2]; Day 13): 2
- number of surviving grafts within each group ([2]; Day 14): 1
- number of surviving grafts within each group ([2]; Day 15): 1
- number of surviving grafts within each group ([2]; Day 16): 0
- graft survival (in words) ([2]; compounds 30 mg/kg s.c. every 12 h, GG5/3 3 mg/kg s.c. day 0, +3, +7, +10): significant graft survival, resembling the results obtained from the GG5/3 group
- allograft acceptance compared with GG5/3 [3]: significantly prolong allograft acceptance beyond the level obtain with GG5/3
- graft survival rate on day +19 [3]: Fifty percent or greater
- longest surviving graft (one graft) [3]: 37 days
- number of surviving grafts within each group ([4]; Day 0): 6
- percent of surviving grafts within a group ([4]; Day 0): 100%
- number of surviving grafts within each group ([4]; Day 1): 6
- percent of surviving grafts within a group ([4]; Day 1): 100%
- number of surviving grafts within each group ([4]; Day 2): 6
- percent of surviving grafts within a group ([4]; Day 2): 100%
- number of surviving grafts within each group ([4]; Day 3): 6
- percent of surviving grafts within a group ([4]; Day 3): 100%
- number of surviving grafts within each group ([4]; Day 4): 6
- percent of surviving grafts within a group ([4]; Day 4): 100%
- number of surviving grafts within each group ([4]; Day 5): 6
- percent of surviving grafts within a group ([4]; Day 5): 100%
- number of surviving grafts within each group ([4]; Day 6): 6
- percent of surviving grafts within a group ([4]; Day 6): 100%
- number of surviving grafts within each group ([4]; Day 7): 6
- percent of surviving grafts within a group ([4]; Day 7): 100%
- number of surviving grafts within each group ([4]; Day 8): 6
- percent of surviving grafts within a group ([4]; Day 8): 100%
- number of surviving grafts within each group ([4]; Day 9): 4
- percent of surviving grafts within a group ([4]; Day 9): 67%
- number of surviving grafts within each group ([4]; Day 10): 4
- percent of surviving grafts within a group ([4]; Day 10): 67%
- number of surviving grafts within each group ([4]; Day 11): 3
- percent of surviving grafts within a group ([4]; Day 11): 50%
- number of surviving grafts within each group ([4]; Day 12): 3
- percent of surviving grafts within a group ([4]; Day 12): 50%
- number of surviving grafts within each group ([4]; Day 13): 1
- percent of surviving grafts within a group ([4]; Day 13): 16%
- number of surviving grafts within each group ([4]; Day 14): 1
- percent of surviving grafts within a group ([4]; Day 14): 16%
- number of surviving grafts within each group ([4]; Day 15): 1
- percent of surviving grafts within a group ([4]; Day 15): 16%
- number of surviving grafts within each group ([4]; Day 16): 1
- percent of surviving grafts within a group ([4]; Day 16): 16%
- number of surviving grafts within each group ([4]; Day 17): 0
- percent of surviving grafts within a group ([4]; Day 17): 0%
- number of surviving grafts within each group ([4]; Day 18): 0
- percent of surviving grafts within a group ([4]; Day 18): 0%
- number of surviving grafts within each group ([4]; Day 19): 0
- percent of surviving grafts within a group ([4]; Day 19): 0%
- graft acceptance out to day ([4]; compound 30 mg/kg s.c. every 12 h, day -2 to +10, GG5/3 3 mg/kg s.c. day 0, +3, +7, +10): 16 days
